Reference: PMC4403079, “Flavonoids from Salvia chloroleuca with α-Amylsae and α-Glucosidase Inhibitory Effect” (Iranian Journal of Pharmaceutical Research : IJPR, 2015)
Read-outs that look alike come from different tables or passages of the source.

Columns and labels:
[1] = target: T1, α-glucosidase type I from Baker's Yeast (Saccharomyces cerevisiae, UniProt P53341); assay: biochemical
T1 construct: purchased Sigma-Aldrich
Description: (§1) Soluble starch, sodium dihydrogenphosphate (NaH2PO4), sodium potassium tartrate and sodium chloride were purchased from Merck. Analytical grade solvents for extraction and HPLC grade solvents for chromatography were from Scharlau (Barcelona, Spain). HPLC grade water was obtained by an EASY-pure II (Barnstead, Dubuque IA, USA) water purification system. Deuterated solvents were purchased from Armar Chemicals (Döttingen, Switzerland).
The α-glucosidase inhibition was measured according to an earlier reported bioassay method ([18]). […] The mixed solution was incubated in 96-well plates at 37 °C for 15 min. After preincubation, the enzymatic reaction was initiated by adding 20 µL of 5 mM p-nitrophenyl-α-D-glucopyranoside solution in 0.1 M phosphate buffer (pH 6.9), and the reaction mixture was incubated for another 15 min at 37 °C. […] The reaction system without plant extracts was used as control and the system without α-glucosidase was used as blank for correcting the background absorbance. The inhibitory rate of sample on α-glucosidase was calculated by the following formula:
% Inhibition=control absorbance-sample absorbance/control absorbance×100
(§2) Statistical analyses were done using GraphPad Prism version 5.00 for Windows. Differences were evaluated by one-way analysis of variance (ANOVA) test completed by Tukey’s multicomparison test. Statistical signiﬁcance was declared at a p<0.05. All assays were performed at least in triplicate and the results were expressed as mean ± standard deviation (SD). IC50 values were determined by plotting a percent inhibition versus concentration curve for all assays.

[2] = target: T2, Porcine pancreas α-amylase type VI (Sus scrofa, UniProt P00690); assay: biochemical
T2 construct: purchased Sigma-Aldrich
T2 sequence (P00690 16-511): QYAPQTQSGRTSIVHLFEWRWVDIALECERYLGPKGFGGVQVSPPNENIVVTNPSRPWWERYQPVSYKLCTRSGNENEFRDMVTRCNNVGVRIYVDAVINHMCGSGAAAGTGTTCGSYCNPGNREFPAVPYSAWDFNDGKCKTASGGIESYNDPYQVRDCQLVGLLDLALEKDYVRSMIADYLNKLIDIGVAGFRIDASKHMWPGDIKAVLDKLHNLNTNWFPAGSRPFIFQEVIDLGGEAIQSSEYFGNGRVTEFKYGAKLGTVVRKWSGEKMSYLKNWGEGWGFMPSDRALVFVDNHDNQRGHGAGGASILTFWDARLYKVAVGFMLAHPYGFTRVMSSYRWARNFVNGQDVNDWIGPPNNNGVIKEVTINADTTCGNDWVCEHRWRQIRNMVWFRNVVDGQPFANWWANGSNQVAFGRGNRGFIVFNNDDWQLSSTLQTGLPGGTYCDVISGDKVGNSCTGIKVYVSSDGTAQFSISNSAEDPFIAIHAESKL
Description: as §1
α-Amylase inhibition activity was assessed by a previously reported procedure with some modifications ([17]). […] Individual blanks were prepared to correct for the blank ground absorbance, where the enzyme was replaced with buffer as follows:
Corrected absorbance of test sample = Absorbance of sample –absorbance of blank
From the net absorbance obtained, the % (w/v) of maltose generated was calculated from the equation obtained from the maltose standard calibration curve (0–0.1%, w/v, maltose).
Control incubations, representing 100% enzyme activity, were conducted in the same manner replacing the plant extract with DMSO. The percentage of α-amylase inhibition was calculated by the following equations:
% reaction=mean of maltose in sample/mean of maltose in control×100
% α-amylase inhibition activity= 100 - % reaction
as §2

[3] = isolated compounds, pH 6.8, 37 °C, 30 min, mean ± SD, read-out: α-amylase (IC50 µM)

T1 sequence (P53341 whole entry): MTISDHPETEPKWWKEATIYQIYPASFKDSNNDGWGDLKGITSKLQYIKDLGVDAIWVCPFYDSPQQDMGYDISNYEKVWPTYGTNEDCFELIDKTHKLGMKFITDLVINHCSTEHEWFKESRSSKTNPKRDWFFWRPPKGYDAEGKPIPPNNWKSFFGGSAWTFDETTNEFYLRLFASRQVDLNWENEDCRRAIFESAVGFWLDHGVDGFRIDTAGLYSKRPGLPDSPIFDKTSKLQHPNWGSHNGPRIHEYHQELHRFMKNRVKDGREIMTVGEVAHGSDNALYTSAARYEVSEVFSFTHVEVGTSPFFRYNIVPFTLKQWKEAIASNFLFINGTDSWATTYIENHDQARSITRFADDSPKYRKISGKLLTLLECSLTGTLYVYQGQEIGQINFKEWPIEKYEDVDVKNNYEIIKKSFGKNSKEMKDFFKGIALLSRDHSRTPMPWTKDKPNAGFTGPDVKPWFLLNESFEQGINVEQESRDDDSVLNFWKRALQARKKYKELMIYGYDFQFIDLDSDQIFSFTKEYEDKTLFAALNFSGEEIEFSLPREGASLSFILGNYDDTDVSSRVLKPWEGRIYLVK

Row | Structure (SMILES) | IC50 [1] [µM] | IC50 [2, 3] [µM] | IC50 ([1]; isolated compounds, pH 6.9, 37 °C, mean ± SD, read-out: α-glucosidase (IC50 µM)) [µM] | IC50 [2] [µM]
1 | O=c1cc(-c2ccc(O)c(O)c2)oc2cc(O[C@@H]3O[C@H](CO)[C@@H](O)[C@H](O)[C@H]3O)cc(O)c12 [Compound 1, luteolin 7-O-glucoside] | 18.3 ± 1.7 | 81.7 ± 2.3 |  | 
2 | O=C(O)[C@H]1O[C@@H](Oc2cc(O)c3c(=O)cc(-c4ccc(O)c(O)c4)oc3c2)[C@H](O)[C@@H](O)[C@@H]1O [Compound 2, luteolin 7-O-glucuronide] | 14.7 ± 2.1 | 61.5 ± 1.4 |  | 
3 | COc1ccc(-c2cc(=O)c3c(O)cc(O[C@@H]4O[C@H](C(=O)O)[C@@H](O)[C@H](O)[C@H]4O)cc3o2)cc1O [Compound 3, diosmetin 7-O-glucuronide] | 17.1 ± 1.9 | 76.3 ± 0.6 |  | 
4 | COc1ccc(-c2cc(=O)c3c(O)c(OC)c(OC)cc3o2)cc1 [Compound 4, salvigenin] |  |  | > 50 | > 100
